# Test results taken from US20030079246A1, “Herbicide resistant plants” (priority 1999, published 2003).
# pIC50, pKi: −log10 of the molar value. Where a name gives a salt, the structure may show the parent alone.
# Target: mutant form of rice EPSPS
# Test: EPSPS enzyme assay, inhibition of purified mutant rice EPSPS by glyphosate
# Assay type: biochemical
# Excerpt: The resultant products are gel purified and placed into a tube in eqi-molar concentrations to serve as a template for another round of PCRs with the rice 5′ and 3′ oligos. The resultant products are cloned into pCRBlunt II using Invitrogens Zero Blunt TOPO kit. It is confirmed that the DNA sequence of the insert and its predicted open reading frame correspond to that of the predicted mature chloroplastic rice EPSPS protein (with the exception of the presence of an initiating Met) and also that the desired changes (the specific mutation of T to I and P to S at specific positions in the EPSPS sequence) are encoded. The thus cloned and verified rice epsps sequence is excised using Nde 1 and Xho 1 and the purified fragment cloned into pET24a (Novagen) digested similarly. The recombinant clones are introduced into BL21 (DE3), a codon optimised RP strain of E.coli supplied by Strategene. The EPSPS protein is expressed in this strain following addition of 1 mM IPTG to the fermenter medium (LB supplemented with 100 ug/ml Kanamycin). […]
compound,measurement,setting,value
O=C(O)CNCP(=O)(O)O [potassium salt of glyphosate],pIC50,"at 40 μM PEP, 2 mM shikimate-3-Pi",~3.22
same,pKi,"mutant EPSPS, read-out: estimated Ki value",~3.70
